Test results taken from ChEMBL document CHEMBL3875182 (Bioorg Med Chem, 2017).

Key:
[1] = Inhibition of Mycobacterium tuberculosis shikimate dehydrogenase using shikimic acid as substrate in presence of NADP+ by spectrophotometric analysis
[2] = system: Mycobacterium tuberculosis; experiment: Antibacterial activity against Mycobacterium tuberculosis H37Rv ATCC 25618 after 8 to 9 days by BacT/Alert MP bottle assay; type: functional
[3] = Cytotoxicity against African green monkey Vero cells assessed as reduction in cell viability by Alamar blue assay; type: toxicity, cell-based; details: African green monkey (Chlorocebus sabaeus)
[4] = Cytotoxicity against human HepG2 cells assessed as reduction in cell viability by Alamar blue assay; type: toxicity, cell-based
[5] = Selectivity index, ratio of IC50 for African green monkey Vero cells to MIC for Mycobacterium tuberculosis H37Rv ATCC 25618; type: toxicity, cell-based; details: read-out: Selectivity Index
[6] = Selectivity index, ratio of IC50 for human HepG2 cells to MIC for Mycobacterium tuberculosis H37Rv ATCC 25618; type: toxicity, cell-based; details: read-out: Selectivity Index

Compound | MIC [2] | further results
COc1ccc(C2=Nn3c(nnc3-c3ccncc3)SC2)cc1 |  | IC50 [1]: 20.99 µg/mL
c1ccc(C2=Nn3c(nnc3-c3ccncc3)SC2)cc1 | 8 µg/mL | 
Fc1ccc(C2=Nn3c(Cc4ccc5ccccc5c4)nnc3SC2)cc1 | > 8 µg/mL | 
COc1ccc(C2=Nn3c(nnc3-c3ccc(Cl)cc3)SC2)cc1 | > 8 µg/mL | 
COc1ccc(C2=Nn3c(nnc3-c3ccc(Br)cc3)SC2)cc1 | 8 µg/mL | 
O=[N+]([O-])c1ccc(C2=Nn3c(nnc3-c3ccc(Br)cc3)SC2)cc1 | 0.6 µM | IC50 [1]: 86.39 µg/mL; IC50 [3]: 13.9 µM; IC50 [4]: 10.4 µM; selectivity ratio [5]: 23.2; selectivity ratio [6]: 17.3
COc1ccc(C2=Nn3c(Cc4ccc5ccccc5c4)nnc3SC2)cc1 | > 8 µg/mL | 
c1ccc(C2=Nn3c(nnc3-c3ccccc3)SC2)cc1 |  | IC50 [1]: 28.38 µg/mL
Fc1ccc(C2=Nn3c(nnc3-c3ccc(Cl)cc3)SC2)cc1 | > 8 µg/mL | 
O=[N+]([O-])c1ccc(C2=Nn3c(Cc4ccc5ccccc5c4)nnc3SC2)cc1 | 9.95 µM | IC50 [1]: 11.68 µg/mL; IC50 [3]: 69.7 µM; IC50 [4]: 72.6 µM; selectivity ratio [5]: 7.01; selectivity ratio [6]: 7.29
O=[N+]([O-])c1ccc(C2=Nn3c(nnc3-c3ccncc3F)SC2)cc1 | 2.8 µM | IC50 [1]: 73.57 µg/mL; IC50 [3]: 355 µM; IC50 [4]: 166 µM; selectivity ratio [5]: 127; selectivity ratio [6]: 59.2
O=[N+]([O-])c1ccc(C2=Nn3c(nnc3-c3ccc(Cl)cc3)SC2)cc1 | 8 µg/mL | 
Fc1ccc(C2=Nn3c(nnc3-c3ccc(Br)cc3)SC2)cc1 | > 8 µg/mL | 
Fc1ccc(C2=Nn3c(nnc3-c3ccncc3F)SC2)cc1 | > 8 µg/mL | 
COc1ccc(-c2nnc3n2N=C(c2ccc(F)cc2)CS3)cc1 | > 8 µg/mL | 
Fc1cnccc1-c1nnc2n1N=C(c1ccccc1)CS2 | > 8 µg/mL | 

Compound | MIC [2] | further results
COc1ccc(C2=Nn3c(nnc3-c3ccccc3)SC2)cc1 | > 8 µg/mL | 
c1ccc(C2=Nn3c(Cc4ccc5ccccc5c4)nnc3SC2)cc1 | > 8 µg/mL | 
Fc1ccc(-c2nnc3sc(COc4ccccc4)nn23)cc1 | 24.5 µM | IC50 [1]: 23 µg/mL; IC50 [3]: 71 µM; IC50 [4]: 46.6 µM; selectivity ratio [5]: 2.9; selectivity ratio [6]: 1.9
Fc1ccc(C2=Nn3c(nnc3-c3ccccc3)SC2)cc1 | > 8 µg/mL | 
Clc1ccc(-c2nnc3sc(COc4ccc(Br)cc4)nn23)cc1 | 0.5 µg/mL | 
Clc1ccc(-c2nnc3n2N=C(c2ccccc2)CS3)cc1 | > 8 µg/mL | 
COc1ccc(C2=Nn3c(nnc3-c3ccncc3F)SC2)cc1 | 8 µg/mL | 
Brc1ccc(OCc2nn3c(-c4ccc(Br)cc4)nnc3s2)cc1 | 0.5 µg/mL | 
COc1ccc(-c2nnc3n2N=C(c2ccc([N+](=O)[O-])cc2)CS3)cc1 | > 8 µg/mL | 
COc1ccc(-c2nnc3n2N=C(c2ccccc2)CS3)cc1 | > 8 µg/mL | 
Fc1ccc(C2=Nn3c(nnc3-c3ccncc3)SC2)cc1 | > 8 µg/mL | 
Brc1ccc(-c2nnc3n2N=C(c2ccccc2)CS3)cc1 | 0.67 µM | IC50 [1]: 252.5 µg/mL; IC50 [3]: 58.5 µM; IC50 [4]: 235 µM; selectivity ratio [5]: 87.3; selectivity ratio [6]: 350
O=[N+]([O-])c1ccc(C2=Nn3c(nnc3-c3ccccc3)SC2)cc1 | > 8 µg/mL | 
COc1ccc(C2=Nn3c(nnc3-c3ccc(OC)cc3)SC2)cc1 | > 8 µg/mL | 
NNC(=O)c1ccncc1 [ISONIAZID] | 0.12 µg/mL | 
CO[C@H]1/C=C/O[C@@]2(C)Oc3c(C)c(O)c4c(O)c(c(/C=N/N5CCN(C)CC5)c(O)c4c3C2=O)NC(=O)/C(C)=C\C=C\[C@H](C)[C@H](O)[C@@H](C)[C@@H](O)[C@@H](C)[C@H](OC(C)=O)[C@@H]1C [RIFAMPIN] | 0.25 µg/mL | 
